Laboratory results as given in publication PMC8955938, “c-Myc Protein Level Affected by Unsymmetrical Bisacridines Influences Apoptosis and Senescence Induced in HCT116 Colorectal and H460 Lung Cancer Cells” (International Journal of Molecular Sciences, 2022).

System: KRAS gene expression in HCT116 cells
Assay: RT-PCR KRAS expression in HCT116
Assay type: cell-based, human
Conditions: HCT116, IC90 doses, up to 120 h
Method: HCT116, H460, CCD 841 CoN and MRC-5 cells after treatment with UAs were collected, washed twice with ice-cold PBS and resuspended in […] of PBS. mRNA was isolated using High Pure RNA Isolation Kit according to the manufacturer’s instructions (Roche, Basel, Switzerland). Briefly, cells were lysed in lysis-binding buffer and transferred to a filter tube. Contaminating DNA was removed by 15 min incubation of the filter tube with DNase I solution. The filter tube was washed once with buffer I and twice with buffer II, and after centrifugation, total RNA was eluted using the elution buffer. RNA concentration was determined by NanoDrop One (Thermo Scientific); 1 µg of RNA was reverse transcribed using Transcriptor First Strand cDNA Synthesis Kit according to the manufacturer’s instructions (Roche) in 20 µL of reaction containing 1 µg of RNA, […] anchored-oligo(dT)18Primer, 8 mM MgCl2, 20 U of Protector RNase Inhibitor, deoxynucleotide mix (1 mM each) and 22 U of Transcriptor Reverse Transcriptase. The reverse transcription reaction was carried out for 30 min at 55 °C and stopped by heating to 85 °C for 5 min and placing on ice. The cDNA solution was stored at −20 °C until use. […] The relative expression level of MYC and KRAS was quantified using comparative method […]. The results were obtained from three independent experiments, each of which was analyzed at least twice.

Cc1ccc([N+](=O)[O-])c2c(NCCCN(C)CCCNc3ccc4ncn5c6ccccc6c(=O)c3c45)c3ccccc3nc12 [Compound C-2053]
KRAS expression compared to untreated control: significant difference
